This note sets out measurements from US8241607B2, “Use of fructose-based compounds for the diagnosis of cancer” (priority 2005, dated 2012).

Each structure is given as a SMILES string.

For assay [1], the system named is MCF-7 cells. The experiment in a line: Breast cancer cell proliferation in fructose versus glucose (MTT assay). Type of assay: cell-based. To be noted: 5 mM fructose compared to 5 mM glucose, 8-72 h. Here is the method: (§1) Estrogen receptor (ER) positive MCF-7, and ER negative MDA-MB231 cells were plated in 5 mM fructose or glucose for times between 8-72 h, and proliferative rates measured using MTT assay. *, p<0.05; **, p<0.01.
(§2) FIG. 5 depicts fructose-mediated increased breast cancer proliferation in accordance with an embodiment of the present invention. ER positive MCF-7, and ER negative MDA-MB231 cells were plated in a range of fructose or glucose concentrations (5-25 mM) for 72 h, after which proliferative rates were measured using an MTT assay. *, p<0.05 for concentrations between 5-25 mM fructose versus glucose.
(§3) Standard media for breast cancer cell culture contain either 5-7 mM (low) and 12-25 mM (high) glucose concentrations. Estrogen receptor (ER) positive MCF-7, and ER negative MDA-MB231 cells were cultured overnight in 2 mM glucose standard DMEM medium containing 10% fetal bovine serum prior to incubation for periods between 8, and 72 hours in standard DMEM medium containing 10% fetal bovine serum, and 5 mM glucose or 5 mM fructose.
(§4) Proliferative rates were then measured in replicate (minimum of 6) aliquot wells of the breast cancer cells grown in glucose, or fructose containing medium. […] In separate experiments, proliferative rates of the MCF-7, and MDA-MB231 breast cancer cells were compared following culture in a range of fructose, and glucose concentrations (2-25 mM) for 72 hours.
(In general: Formazan colour is commonly taken as a measure of viable cells.)

For assay [2], the system named is MDA-MB231 cells. Described as above. The format is cell-based. Conditions: 5 mM fructose compared to 5 mM glucose, 8-72 h. Here is the method:
as §1, §2, §3, §4

In assay [3] the test system is PANC-1 cells. The assay can be described thus: PANC-1 proliferation in fructose versus glucose (MTS assay). The format is cell-based. The method, then: FIG. 13 depicts higher proliferation rates in pancreatic cancer cells in fructose (5.5 mM) than glucose (5.5 mM) containing medium in accordance with an embodiment of the present invention. PANC-1 cells were pre-incubated in 2 mM glucose, after which they were plated in 5.5 mM fructose or glucose for times between 12-72 h, after which proliferative rates were measured using an MTS assay. Proliferative rates are expressed as the percentage difference between cells grown in 5.5 mM fructose versus 5.5 mM glucose. p<0.01 for times >48 h.
FIG. 14 depicts proliferation rates of pancreatic cells in different fructose or glucose concentrations in accordance with an embodiment of the present invention. PANC-1 cells were plated in a range of fructose or glucose concentrations (5-25 mM) for 72 h, after which proliferative rates were measured using an MTS assay. *, p<0.05 for concentrations between 5-25 mM fructose versus glucose.
FIG. 17 depicts cell proliferation regardless of co-existent glucose concentration in accordance with an embodiment of the present invention. PANC-1 cells were pre-incubated in 2 mM glucose prior to treatment with a range of concentrations (0-15 mM) mixed with a range of fructose concentrations (0-15 mM) for 72 h. PANC-1 cell proliferative rates were then measured using the MTS assay (absorbance in arbitrary units).
Standard media for maintenance cancer cell line culture, including pancreatic cancer cells such as PANC-1 cells contain either low- (5-7 mM), or high- (12-25 mM) glucose concentrations. […] Proliferative rates were then measured in replicate (minimum of 6) aliquot wells of the pancreatic cancer cells, and the change (expressed as percent increase) in proliferative rates compared between cells grown in glucose, or fructose containing medium.
This first result intrigued the inventors, but given there is little documentation regarding physiological fructose concentrations, the inventors first considered that the “apparent” pro-proliferative effects of fructose were simply a consequence of the highly stylized in vitro experimental conditions, and that if the pancreatic cancer cells were cultured in higher glucose concentrations, this would result in similar proliferative rates to those the inventors observed following culture in 5.5 mM fructose. […] MTS assay was employed to measure pancreatic cancer cell proliferative rates, which utilizes mitochondrial oxidation to quantify cell proliferation. As the inventors were examining carbohydrate-mediated effects, the inventors considered the change observed in proliferative rates, as measured by this assay, simply reflected changes in mitochondrial oxidation. […]

Assay [4] concerns primary pancreatic cancers. The assay can be described thus: BRDU uptake in primary cultures of surgically resected pancreatic cancers. To be noted: all 5 primary pancreatic cancers; 5.5 mM fructose compared to 5.5 mM glucose, 72 h. The format is cell-based, human. The method, then: FIG. 18 depicts BRDU incorporation by pancreatic cells in accordance with an embodiment of the present invention. Freshly resected pancreatic cancers were mechanically and enzymatically dispersed, and cells were pre-incubated in 2 mM glucose prior to treatment with 5.5 mM glucose or fructose for 72 h. BRDU (10 μM) was added to the medium at 48 h, and BRDU-uptake quantified at 72 h.
As immortalized cell-lines, such as PANC-1 pancreatic cancer cells, can become dedifferentiated after repeated passages, and in order to translate these findings in the PANC-1 cells to patients with pancreatic cancer, the inventors also examined proliferative rates in primary cultures of fresh surgically resected pancreatic cancers, following incubation in 2 mM, and 5.5 mM glucose or 5.5 mM fructose. Briefly, after mechanical and enzymatic (trypsin and DNAse) disaggregation, aliquots of tumor cells were seeded in 6-well plates, and incubated in standard DMEM media with 10% fetal bovine serum, and 2 mM glucose, 5.5 mM glucose, or 5.5 mM fructose for 72 h. As before in the PANC-1 experiments, BRDU (10 μM) was added in the […] of incubation in the sugars, following which BRDU-uptake was quantified.

As for `O=C(CO)[C@@H](O)[C@H](O)[C@H](O)CO` [fructose], the proliferative rates entry in assay [1] is on record as “higher proliferative rates”; in assay [2], “higher proliferative rates”; in assay [3] (5 mM fructose vs 5-fold higher glucose (25 mM), 72 h), “higher proliferative rates”. Moreover, the “higher proliferative rate, fructose vs glucose” value in assay [3] (5.5 mM fructose vs 5.5 mM glucose, 72 h (maximal)) came to 23%. In addition, the “fructose concentration giving increase in cell proliferation regardless of co-existent glucose” value in assay [3] (72 h, glucose 0-15 mM admixed with fructose 0-15 mM) was at least 6 mM. Moreover, the “fructose concentration at which increased proliferation was first demonstrable” value in assay [3] (72 h, range 2-25 mM) is on record as “around 5 mM”. In addition, the “proliferative rates (BRDU-uptake)” value in assay [4] is reported as “higher proliferative rates”.
